Assay results published in patent US20250176554A1, “NON-TOXIC […] IN WHICH OZONE SYNERGIZE WITH CARBON DIOXIDE” (priority 2022, published 2025).

How the values were obtained:
coccid insects = experiment: two-stage ozone then carbon dioxide fumigation, text statements on the insects/pests; assay type: in vivo
Description: (§1) Step 1: Placing the pest control object into a sample bottle, which contains coccid insects, and sealing the sample bottle with a pore size of 10 um filter membrane. This configuration simulates the environment of insects or other creatures hiding deep inside fruits, within stems, or shielded by stacked fruit packages (this test was also validated using stacked sugar apples and wax apples, yielding similar results). The sample is then placed in a fumigation chamber.
(§2) Step 2: After closing the fumigation chamber, vacuuming the chamber to 0.2 bar-0.9 bar, then maintaining this lower pressure for about 2 minutes to confirm that the fumigation chamber is well sealed.
(§3) Step 3: Introducing ozone at a concentration ranging from 40 ppm to 160 ppm into the fumigation chamber until 1.0-1.7 bar, and fumigating for 3-20 minutes.
(§4) Step 4: Exhausting the gas from the fumigation chamber, then vacuuming it to 0.2-0.9 bar, and maintaining this low pressure for about 2 minutes.
(§5) Step 5: Introducing high-concentration carbon dioxide into the fumigation chamber until 1.0-1.7 bar, fumigating for 10-30 minutes.
(§6) Step 6: After the above pest control steps, exhausting the gases from the fumigation chamber and restoring the chamber to atmospheric pressure, then removing the tested objects.
(§7) Step 7: Spraying 0.5 wt % methylene blue aqueous solution (light blue) or 0.05 wt % neutral red staining solution (light red) onto the insects and waiting for 60 minutes. Well-stained insects indicate death. All values are expressed as mean±SD. ANOVA or other appropriate statistical analysis methods were used, with P<0.05 indicating a significant difference.

silkworm eggs = experiment: ozone then carbon dioxide fumigation of silkworm eggs, hatching; assay type: in vivo; details: ozone pressure 1.4 bar; carbon dioxide introduced for 20 minutes
Experimental: (§8) Using the same method as Embodiment 1, except that the treatment period of carbon dioxide is adjusted to 10-50 minutes. The evacuation pressure in the fumigation chamber in Step 2 is 0.3 bar. In Step 3, the pressure after the ozone input is controlled within 1.0-1.4 bar, and the pest-control treatment is conducted for 5 minutes. In Step 4, the fumigation chamber is evacuated to 0.3 bar. In Step 5, the pressure after the input of carbon dioxide (99.5% concentration) is controlled at 1.4 bar, and the pest-control treatment is conducted for 10-50 minutes.
Using the same experimental conditions as Embodiment 5, when the ozone pressure is 1.4 bar, silkworm eggs were used for testing.

pests [1] = details: 60% CO2, asparagus; cited from earlier work
dried apricot pests = details: CO2 under 0.5 times atmospheric pressure; cited from earlier work
Pseudococcidae = experiment: two-stage ozone then carbon dioxide fumigation, lethal rate by staining; assay type: in vivo
Description: as §1, §2, §3, §4, §5, §6, §7
(§9) Using the same method as Embodiment 1, except that the concentration of the introduced ozone is adjusted (ranging from 40 ppm to 160 ppm). The pressure of the fumigation chamber in Step 2 is about 0.3 bar; in Step 3, it is about 1.3 bar, with the process lasting 5 minutes; in Step 4, it is about 0.3 bar; and in Step 5, the pressure is 1.3 bar, with the process lasting 15 minutes.
(§10) Using the same method as Embodiment 2, except that the evacuation pressure in Step 2 is adjusted (ranging from 0.2 bar to 0.9 bar); the concentration of the introduced ozone is approximately 70 ppm, and other parameters remain the same as those in Embodiment 2.
(§11) Using the same method as Embodiment 2, except that the ozone treatment duration in […] is adjusted (ranging from 3 to 30 minutes); the concentration of the introduced ozone is 70 ppm, and ozone is introduced until the pressure reaches 1.0 bar. Other parameters remain the same as those in Embodiment 2.
as §8

Icerya purchasi = experiment: as above; assay type: in vivo
Description: as §1, §2, §3, §4, §5, §6, §7, §9, §10, §11, §8

aphids = details: 10% CO2 in greenhouses; cited from earlier work
red flour beetle = details: pressurized CO2, 5 times to 15 times of the standard atmospheric pressure; cited from earlier work
mite eggs = details: vacuum pumping then 60% CO2, normal temperature and normal pressure, at least 16 hours; cited from earlier work
pests [2] = details: CO2 with 1.8 times of the standard atmospheric pressure; cited from earlier work
[3] = ozone at 1.0 bar 5 min, evacuation 0.3 bar, CO2 99.5% at 1.4 bar for 10 min
[4] = ozone at 1.0 bar 5 min, evacuation 0.3 bar, CO2 99.5% at 1.4 bar for 15 min
[5] = ozone at 1.0 bar 5 min, evacuation 0.3 bar, CO2 99.5% at 1.4 bar for 20 min
[6] = ozone at 1.0 bar 5 min, evacuation 0.3 bar, CO2 99.5% at 1.4 bar for 30 min
[7] = ozone at 1.0 bar 5 min, evacuation 0.3 bar, CO2 99.5% at 1.4 bar for 40 min
[8] = ozone at 1.4 bar 5 min, evacuation 0.3 bar, CO2 99.5% at 1.4 bar for 10 min
[9] = ozone at 1.4 bar 5 min, evacuation 0.3 bar, CO2 99.5% at 1.4 bar for 15 min
[10] = ozone at 1.4 bar 5 min, evacuation 0.3 bar, CO2 99.5% at 1.4 bar for 20 min
[11] = ozone at 1.4 bar 5 min, evacuation 0.3 bar, CO2 99.5% at 1.4 bar for 30 min
[12] = ozone at 1.4 bar 5 min, evacuation 0.3 bar, CO2 99.5% at 1.4 bar for 40 min
[13] = Step 2 vacuumed pressure 0.2 bar, ozone 70 ppm to 1.3 bar 5 min, then CO2 1.3 bar 15 min
[14] = Step 2 vacuumed pressure 0.3 bar, ozone 70 ppm to 1.3 bar 5 min, then CO2 1.3 bar 15 min
[15] = Step 2 vacuumed pressure 0.4 bar, ozone 70 ppm to 1.3 bar 5 min, then CO2 1.3 bar 15 min
[16] = Step 2 vacuumed pressure 0.5 bar, ozone 70 ppm to 1.3 bar 5 min, then CO2 1.3 bar 15 min
[17] = Step 2 vacuumed pressure 0.6 bar, ozone 70 ppm to 1.3 bar 5 min, then CO2 1.3 bar 15 min
[18] = Step 2 vacuumed pressure 0.9 bar, ozone 70 ppm to 1.3 bar 5 min, then CO2 1.3 bar 15 min
[19] = ozone 40 ppm to 1.3 bar 5 min, evacuation 0.3 bar, then CO2 1.3 bar 15 min
[20] = ozone 70 ppm to 1.0 bar for 3 min, evacuation 0.3 bar, then CO2 1.3 bar 15 min
[21] = ozone 70 ppm to 1.0 bar for 5 min, evacuation 0.3 bar, then CO2 1.3 bar 15 min
[22] = ozone 70 ppm to 1.0 bar for 10 min, evacuation 0.3 bar, then CO2 1.3 bar 15 min
[23] = ozone 70 ppm to 1.0 bar for 15 min, evacuation 0.3 bar, then CO2 1.3 bar 15 min
[24] = ozone 70 ppm to 1.0 bar for 20 min, evacuation 0.3 bar, then CO2 1.3 bar 15 min
[25] = ozone 70 ppm to 1.0 bar for 30 min, evacuation 0.3 bar, then CO2 1.3 bar 15 min
[26] = ozone 70 ppm to 1.3 bar 5 min, evacuation 0.3 bar, then CO2 1.3 bar 15 min
[27] = ozone 100 ppm to 1.3 bar 5 min, evacuation 0.3 bar, then CO2 1.3 bar 15 min
[28] = ozone 130 ppm to 1.3 bar 5 min, evacuation 0.3 bar, then CO2 1.3 bar 15 min
[29] = ozone 160 ppm to 1.3 bar 5 min, evacuation 0.3 bar, then CO2 1.3 bar 15 min

Q: Which “time to completely kill the pests” value (coccid insects; ozone 5 minutes at 1.0 bar, in synergy with carbon dioxide) does the source give for ozone and carbon dioxide here?
A: The value was “about 30 minutes”.

Q: What about the “time to completely kill the pests” value (coccid insects; ozone 5 minutes at 1.4 bar, then carbon dioxide) of the same molecule?
A: The value was 15 min.

Q: What about the “pest control / pest elimination” value (coccid insects; two-stage fumigation, within 20 minutes) of the same molecule?
A: Its value is 100%.

Q: What about the “hatching of silkworm eggs” value (silkworm eggs) of the same molecule?
A: The value was “none of the silkworm eggs in the experimental group hatched”.

Q: For `O=C=O` [CO2, carbon dioxide], which “time required to achieve minimal pest control” value (pests [1]) is on record?
A: The value was “more than 48 hours”.

Q: What about the “time required to kill 90% of pests” value (dried apricot pests) of the same molecule?
A: The value was “over 24 hours”.

Q: What about the Lethal rate (Pseudococcidae; [3]) of the same molecule?
A: The Lethal rate was 81 ± 6%.

Q: And the Lethal rate (Pseudococcidae; [4])?
A: Its Lethal rate is 91 ± 8%.

Q: And the Lethal rate (Pseudococcidae; [5])?
A: The Lethal rate was 100 ± 1%.

Q: What about the Lethal rate (Pseudococcidae; [6]) of the same molecule?
A: The Lethal rate was 100 ± 0%.

Q: And the Lethal rate (Pseudococcidae; [7])?
A: The Lethal rate was 100 ± 0%.

Q: What about the Lethal rate (Pseudococcidae; [8]) of the same molecule?
A: Its Lethal rate is 89 ± 8%.

Q: And the Lethal rate (Pseudococcidae; [9])?
A: The Lethal rate was 100 ± 1%.

Q: And the Lethal rate (Pseudococcidae; [10])?
A: Its Lethal rate is 100 ± 0%.

Q: And the Lethal rate (Pseudococcidae; [11])?
A: Its Lethal rate is 100 ± 0%.

Q: And the Lethal rate (Pseudococcidae; [12])?
A: Its Lethal rate is 100 ± 0%.

Q: What about the Lethal rate (Icerya purchasi; [3]) of the same molecule?
A: The Lethal rate was 72 ± 11%.

Q: What about the Lethal rate (Icerya purchasi; [4]) of the same molecule?
A: Its Lethal rate is 88 ± 11%.

Q: And the Lethal rate (Icerya purchasi; [5])?
A: Its Lethal rate is 97 ± 4%.

Q: And the Lethal rate (Icerya purchasi; [6])?
A: The Lethal rate was 100 ± 0%.

Q: What about the Lethal rate (Icerya purchasi; [7]) of the same molecule?
A: Its Lethal rate is 100 ± 0%.

Q: What about the Lethal rate (Icerya purchasi; [8]) of the same molecule?
A: Its Lethal rate is 92 ± 11%.

Q: And the Lethal rate (Icerya purchasi; [9])?
A: The Lethal rate was 100 ± 0%.

Q: And the Lethal rate (Icerya purchasi; [10])?
A: The Lethal rate was 100 ± 0%.

Q: And the Lethal rate (Icerya purchasi; [11])?
A: Its Lethal rate is 100 ± 0%.

Q: And the Lethal rate (Icerya purchasi; [12])?
A: Its Lethal rate is 100 ± 0%.

Q: And the “time required to achieve minimal pest control effects” value (aphids)?
A: The value was “one week”.

Q: What about the “time required to kill most of the pests” value (red flour beetle) of the same molecule?
A: Its value is “at least 1.8 days”.

Q: And the “mortality of mite eggs” value (mite eggs)?
A: The value was 89%.

Q: And the “time required to achieve the minimal pest control” value (pests [2])?
A: The value was “at least 120 minutes”.

Q: For `O=[O+][O-]` [ozone], which Lethal rate (Pseudococcidae; [13]) is on record?
A: Its Lethal rate is 100 ± 0%.

Q: What about the Lethal rate (Pseudococcidae; [14]) of the same molecule?
A: The Lethal rate was 91 ± 5%.

Q: And the Lethal rate (Pseudococcidae; [15])?
A: Its Lethal rate is 82 ± 10%.

Q: And the Lethal rate (Pseudococcidae; [16])?
A: Its Lethal rate is 71 ± 13%.

Q: What about the Lethal rate (Pseudococcidae; [17]) of the same molecule?
A: Its Lethal rate is 52 ± 14%.

Q: And the Lethal rate (Pseudococcidae; [18])?
A: The Lethal rate was 30 ± 17%.

Q: What about the Lethal rate (Pseudococcidae; [19]) of the same molecule?
A: The Lethal rate was 81 ± 11%.

Q: And the Lethal rate (Pseudococcidae; [20])?
A: The Lethal rate was 61 ± 16%.

Q: What about the Lethal rate (Pseudococcidae; [21]) of the same molecule?
A: Its Lethal rate is 71 ± 10%.

Q: And the Lethal rate (Pseudococcidae; [22])?
A: Its Lethal rate is 91 ± 7%.

Q: And the Lethal rate (Pseudococcidae; [23])?
A: The Lethal rate was 100 ± 0%.

Q: And the Lethal rate (Pseudococcidae; [24])?
A: Its Lethal rate is 100 ± 0%.

Q: What about the Lethal rate (Pseudococcidae; [25]) of the same molecule?
A: The Lethal rate was 100 ± 0%.

Q: And the Lethal rate (Pseudococcidae; [26])?
A: The Lethal rate was 93 ± 7%.

Q: And the Lethal rate (Pseudococcidae; [27])?
A: The Lethal rate was 100 ± 0%.

Q: And the Lethal rate (Pseudococcidae; [28])?
A: Its Lethal rate is 100 ± 0%.

Q: And the Lethal rate (Pseudococcidae; [29])?
A: The Lethal rate was 100 ± 0%.

Q: And the Lethal rate (Icerya purchasi; [13])?
A: The Lethal rate was 100 ± 0%.

Q: What about the Lethal rate (Icerya purchasi; [14]) of the same molecule?
A: The Lethal rate was 96 ± 3%.

Q: What about the Lethal rate (Icerya purchasi; [15]) of the same molecule?
A: Its Lethal rate is 85 ± 12%.

Q: And the Lethal rate (Icerya purchasi; [16])?
A: Its Lethal rate is 68 ± 17%.

Q: And the Lethal rate (Icerya purchasi; [17])?
A: Its Lethal rate is 48 ± 16%.

Q: And the Lethal rate (Icerya purchasi; [18])?
A: The Lethal rate was 37 ± 18%.

Q: What about the Lethal rate (Icerya purchasi; [19]) of the same molecule?
A: Its Lethal rate is 76 ± 10%.

Q: What about the Lethal rate (Icerya purchasi; [20]) of the same molecule?
A: Its Lethal rate is 64 ± 14%.

Q: What about the Lethal rate (Icerya purchasi; [21]) of the same molecule?
A: The Lethal rate was 68 ± 9%.

Q: And the Lethal rate (Icerya purchasi; [22])?
A: The Lethal rate was 87 ± 9%.

Q: And the Lethal rate (Icerya purchasi; [23])?
A: The Lethal rate was 100 ± 1%.

Q: What about the Lethal rate (Icerya purchasi; [24]) of the same molecule?
A: Its Lethal rate is 100 ± 0%.

Q: What about the Lethal rate (Icerya purchasi; [25]) of the same molecule?
A: Its Lethal rate is 100 ± 0%.

Q: What about the Lethal rate (Icerya purchasi; [26]) of the same molecule?
A: Its Lethal rate is 98 ± 3%.

Q: What about the Lethal rate (Icerya purchasi; [27]) of the same molecule?
A: The Lethal rate was 100 ± 0%.

Q: And the Lethal rate (Icerya purchasi; [28])?
A: The Lethal rate was 100 ± 0%.

Q: What about the Lethal rate (Icerya purchasi; [29]) of the same molecule?
A: Its Lethal rate is 100 ± 0%.

Q: And the Lethal rate (coccid insects; ozone 70 ppm, 90 minutes after the treatment in Step 3)?
A: The Lethal rate was 100%.

Q: And the final lethal rate (coccid insects; vacuum pressure 0.4 or 0.5 bar, ozone 70 ppm, after 90 minutes of ozone treatment)?
A: The final lethal rate was 100%.
